{"source": "patent US7998936B2", "about": "“Use of timosaponin Bll in the preparation of a medicament or product for the prevention and treatment of stroke” (Institute of Radiation Medicine, Academy of Military …, priority 2004, dated 2011)", "key": {"[1]": {"test_system": "Middle Cerebral Artery Thrombosis (MCAT) Rats", "assay": "Water content in brain tissues in middle cerebral artery thrombosis rats", "assay_type": "in vivo, rat", "conditions": "24 h after operation, 12 mg/kg"}, "[2]": {"test_system": "acute blood stagnation model rats", "assay": "Whole blood and plasma viscosities in acute blood stagnation model rats", "assay_type": "in vivo, rat", "conditions": "12 mg/kg by gavage 5 days", "text": "MAO Teng-min's methods were modified to prepare the model."}, "[3]": {"test_system": "acute blood stagnation model rats", "assay": "Erythrocyte aggregation and deformability in acute blood stagnation model rats", "assay_type": "in vivo, rat", "conditions": "12 mg/kg", "procedure": "MAO Teng-min's methods were modified to prepare the model. Rats were subcutaneously injected with 0.8 mg/kg adrenaline twice at 1 h and 5 h after administration on the fifth day, and were placed into ice-water at 4° C. for 5 min at 2 h after the first injection of adrenaline.\nTo 40 μl of heparinized blood, 1 ml of deforming solution was added and mixed thoroughly. A sample of 0.8 ml was tested in an erythrocyte aggregation/deformability tester, and erythrocyte deformability was expressed as maximal erythrocyte deformation index and area under curve (SSS). Another 0.8 ml of anticoagulated blood was tested in an erythrocyte aggregation/deformability tester, and erythrocyte aggregation was expressed as maximal erythrocyte aggregation index (MAXD) and area under curve ([…])."}, "[4]": {"test_system": "IL-1β", "assay": "ELISA of IL-1β in brain tissue of cerebral ischemia-reperfusion rats", "conditions": "brain homogenate, 12 mg/kg by gavage 5 days"}, "[5]": {"test_system": "TNF-α", "assay": "ELISA of TNF-α in brain tissue of cerebral ischemia-reperfusion rats", "conditions": "brain homogenate, 12 mg/kg by gavage 5 days"}, "[6]": {"test_system": "IL-10", "assay": "ELISA of IL-10 in brain tissue of cerebral ischemia-reperfusion rats", "conditions": "brain homogenate, 12 mg/kg by gavage 5 days"}, "[7]": {"test_system": "TGF-β", "assay": "ELISA of TGF-β in brain tissue of cerebral ischemia-reperfusion rats", "conditions": "brain homogenate, 12 mg/kg by gavage 5 days"}}, "data": [{"molecule": "COCCOC(=O)C1=C(C)NC(C)=C(C(=O)OC(C)C)C1c1cccc([N+](=O)[O-])c1", "note": "(stereo not drawn) [Nimodipine, reference compound]", "values": [{"measurement": "Water content of affected hemisphere", "setting": "[1]", "result": "80.37 ± 0.73", "unit": "%"}, {"measurement": "Water content of unaffected hemisphere", "setting": "[1]", "result": "79.44 ± 0.41", "unit": "%"}, {"measurement": "Plasma viscosity (100 S^−1)", "setting": "[2]", "result": "1.41 ± 0.14"}, {"measurement": "Whole blood viscosity 1 S^−1", "setting": "[2]", "result": "30.45 ± 8.74"}, {"measurement": "Whole blood viscosity 5 S^−1", "setting": "[2]", "result": "12.34 ± 2.58"}, {"measurement": "Whole blood viscosity 30 S^−1", "setting": "[2]", "result": "6.47 ± 0.92"}, {"measurement": "Whole blood viscosity 200 S^−1", "setting": "[2]", "result": "4.51 ± 0.55"}, {"measurement": "Erythrocyte aggregation SS", "setting": "[3]; area under curve", "result": "160.38 ± 16.50"}, {"measurement": "Erythrocyte deformability SSS", "setting": "[3]; area under curve", "result": "353.92 ± 15.83"}, {"measurement": "Erythrocyte aggregation MAXD", "setting": "[3]; maximal erythrocyte aggregation index", "result": "0.80 ± 0.09"}, {"measurement": "Erythrocyte deformability MAXDI", "setting": "[3]; maximal erythrocyte deformation index", "result": "0.70 ± 0.03"}, {"measurement": "IL-1β", "setting": "[4]", "result": "9.01 ± 0.81", "unit": "pg/mL"}, {"measurement": "TNFα", "setting": "[5]", "result": "7.92 ± 0.56", "unit": "pg/mL"}, {"measurement": "IL-10", "setting": "[6]", "result": "4.98 ± 3.54", "unit": "pg/mL"}, {"measurement": "TGF-β", "setting": "[7]", "result": "12.01 ± 2.54", "unit": "pg/mL"}]}]}
